Values of other authors, collected in patent US20060105961A1 (Pharmacia Corporation, priority 2002, published 2006).

Tested on: tumor
Settings: mice after radiotherapy

**Q.** Which tumor cure rate does the source give for `COc1ccc2c(c1)c(CC(=O)O)c(C)n2C(=O)c1ccc(Cl)cc1` [indomethacin] here?
**A.** increases the tumor cure rate

**Q.** And the tumor growth delay?
**A.** prolongs tumor growth delay
